US10709745B2, “Tropic cell based virotherapy for the treatment of cancer” (priority 2013, dated 2020)

Legend:
[1] = test system: U87MG intracranial glioma xenografts; experiment: U87MG intracranial xenograft, TMZ and CRAd-S-pk7 combination survival; assay type: in vivo, mice
Method: FIGS. 11A, 11B and 11C show in vivo anti-tumor activity of CRAd-S-pk7 in combination with TMZ according to one embodiment. (FIG. 11A) Five consecutive injections of TMZ at 70 mg/kg/day (▾) achieve 100% survival for 80 days post U87MG implantation, whereas 5 TMZ injections at 10 mg/kg/day (∘) had significant increase in survival compared to mock treatment ( )(p<0.05).
Because temozolomide (TMZ) is the standard of care for patients with GBM, the efficacy of TMZ and CRAd-S-pk7 combination was evaluated in vivo in mice with U87MG intracranial (i.c.) glioma xenografts. To employ a dose that resembles the partial therapeutic effect of TMZ seen in the clinical scenario, different doses of TMZ were tested. Based on those studies, a dose of 10 mg/kg/day×5 days of intraperitoneal (i.p.) TMZ was chosen to study the efficacy of a TMZ and CRAd-S-pk7 combination treatment, since this dose led to an increase in survival but remained non-curative (FIG. 11A) (log-rank test, p<0.05). Additionally, different doses of i.c. CRAd-S-pk7 injections were tested to investigate which dose provides an increase in survival that could be further enhanced by the addition of co-adjuvant TMZ. A dose of 3×10^9 vp/mouse×2 injections of CRAd-S-pk7 was chosen for testing the therapeutic effects of TMZ+CRAd-S-pk7 combination, since it led to a partial efficacy that could be further enhanced (FIG. 11B) (log-rank test p<0.05).
Based on the above findings, the combination of TMZ and CRAd-S-pk7 was tested for efficacy in terms of survival (FIG. 11C). The combination of TMZ (10 mg/kg/day×5) plus two i.c. injections of CRAd-S-pk7 3×10^9 vp/mouse led to a 90% of long term survivors (>90 days) (LTS). […] Consistent with the finding of an additive cytotoxic effect of TMZ and CRAd-S-pk7 in vitro experiments, this treatment combination led to an improved survival in mice bearing intracranial human glioma xenografts.

[2] = test system: HB1.F3-CD; experiment: TMZ IC50 with simultaneous XRT; assay type: cell-based; details: Homo sapiens; treated with XRT (2 Gy) simultaneously
Method: For all studies, the cells and mice received XRT in accordance with the University of Chicago's radiation safety guidelines and protocols. All cells received a single dose of 2 Gy XRT. For animal studies, 10 Gy fractioned dose radiotherapy (2 Gy for 5 consecutive days) was used. The animals were irradiated with a lead cover shielding their entire body, with only their heads exposed. […] For in vivo studies, the mice received 2.5, 5, 10, or 30 mg/kg TMZ via intraperitoneal injection.
NSCs have an inherent pathotropism toward glioma, which is critical for their utility as cell carriers. Therefore, it is critical that such intrinsic molecular properties and phenotypes of NSCs are maintained during radio-chemotherapy (XRT-TMZ). […] Oct4, a marker of self-renewal for undifferentiated cells, was expressed in 87.6±1.1% of the loaded NSCs. […] The percentage of Oct4 positive cells decreased to 81±2% (*, p<0.05), whereas the MFI was not reduced. […] Because of the high priority of safety when working with the undifferentiated v-myc immortalized HB1.F3-CD stem cell line (Kim et al. 2008), an in vivo safety monitoring experiment was performed to test the effect of XRT-TMZ on loaded HB1.F3-CD cellular transformation. CRAd-S-pk7-loaded NSCs were implanted in the brains of nude mice with no tumor burden. […]

SMILES: Cn1nnc2c(C(N)=O)ncn2c1=O [TMZ, temozolomide]
- median survival ([1]; TMZ 10 mg/kg/day×5 alone or CRAd-S-pk7 3×10^9 vp/mouse×2 alone): 51 days
- long term survivors (>90 days) (LTS) ([1]; TMZ 10 mg/kg/day×5 i.p., CRAd-S-pk7 3×10^9 vp/mouse×2 i.c., alone or combined): 7%
- survival for 80 days post U87MG implantation ([1]; TMZ 70 mg/kg/day, five consecutive injections): 100%
- IC50 [2]: 15 µM
